Among the data in ChEMBL document CHEMBL1151672, “Amarogentin, a naturally occurring secoiridoid glycoside and a newly recognized inhibitor of topoisomerase I from Leishmania donovani” (J Nat Prod, 1996) are Activity values, retold here.

The test has as its system Leishmania donovani. Description: Inhibition of 2 units of Leishmania donovani MHOM/IN/1978/UR6 DNA topoisomerase 1-mediated supercoiled pGEM4Z DNA relaxation at 5 to 10 uM preincubated for 10 mins prior to DNA addition by agarose gel electrophoresis.

Each structure is given as a SMILES string. Active and inactive are the calls of the source. No cut-off for these calls is given here.

With `CC[C@@]1(O)C(=O)OCc2c1cc1n(c2=O)Cc2cc3ccccc3nc2-1`, the result was Active.
